According to ChEMBL document CHEMBL1201862, “PubChem BioAssay data set” (2004):
The source made the active and inactive calls.

Experiments:
Insulin-degrading enzyme [1] = biological target: T1, Insulin-degrading enzyme (Homo sapiens, UniProt P14735); test: recombinant IDE activation, cell-free – biochemical, fluorescence polarization, counter-screen for IDE activator project, dose response (AID 588681)
T1 sequence (P14735 whole entry): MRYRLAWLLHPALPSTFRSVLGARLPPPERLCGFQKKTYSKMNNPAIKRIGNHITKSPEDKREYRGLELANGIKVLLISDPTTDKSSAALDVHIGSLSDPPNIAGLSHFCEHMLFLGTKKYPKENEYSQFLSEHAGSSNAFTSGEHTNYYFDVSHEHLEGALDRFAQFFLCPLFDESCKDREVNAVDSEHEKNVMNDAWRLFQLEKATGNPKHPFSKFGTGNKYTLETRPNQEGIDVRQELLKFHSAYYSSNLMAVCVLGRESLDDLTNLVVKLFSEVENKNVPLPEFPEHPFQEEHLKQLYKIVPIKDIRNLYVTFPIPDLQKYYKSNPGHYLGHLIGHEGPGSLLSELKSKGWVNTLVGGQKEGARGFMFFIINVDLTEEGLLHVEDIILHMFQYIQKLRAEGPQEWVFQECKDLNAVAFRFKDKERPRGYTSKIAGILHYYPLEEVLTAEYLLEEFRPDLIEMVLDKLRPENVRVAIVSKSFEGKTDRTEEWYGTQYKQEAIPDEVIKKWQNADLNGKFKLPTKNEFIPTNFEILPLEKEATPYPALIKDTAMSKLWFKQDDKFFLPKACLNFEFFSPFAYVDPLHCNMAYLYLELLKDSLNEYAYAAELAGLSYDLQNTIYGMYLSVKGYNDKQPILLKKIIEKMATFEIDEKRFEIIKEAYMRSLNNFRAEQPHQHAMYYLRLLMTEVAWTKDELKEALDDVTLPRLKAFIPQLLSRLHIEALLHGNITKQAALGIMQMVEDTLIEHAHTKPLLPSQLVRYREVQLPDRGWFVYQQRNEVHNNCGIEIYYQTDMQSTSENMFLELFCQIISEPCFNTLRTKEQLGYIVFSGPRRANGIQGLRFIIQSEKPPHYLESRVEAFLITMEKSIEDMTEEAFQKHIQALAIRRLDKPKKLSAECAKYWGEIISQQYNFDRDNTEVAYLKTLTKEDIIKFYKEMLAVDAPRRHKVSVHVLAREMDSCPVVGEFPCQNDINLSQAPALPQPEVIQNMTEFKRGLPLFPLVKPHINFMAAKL

[2] = HepG2 cell cytotoxicity, dose response, cytotoxicity control for non-replicating M. tuberculosis project (AID 489018); type: functional; settings: Mycobacterium tuberculosis
[3] = THP-1 cell cytotoxicity, dose response, cytotoxicity control for non-replicating M. tuberculosis project (AID 489025); type: functional
X-box-binding protein 1 = biological target: T2, X-box-binding protein 1 (Homo sapiens, UniProt P17861); type: functional, Cricetulus griseus;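 note: confirmatory dose-response counter-screen serving a CHOP assay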
T2 sequence (P17861 whole entry): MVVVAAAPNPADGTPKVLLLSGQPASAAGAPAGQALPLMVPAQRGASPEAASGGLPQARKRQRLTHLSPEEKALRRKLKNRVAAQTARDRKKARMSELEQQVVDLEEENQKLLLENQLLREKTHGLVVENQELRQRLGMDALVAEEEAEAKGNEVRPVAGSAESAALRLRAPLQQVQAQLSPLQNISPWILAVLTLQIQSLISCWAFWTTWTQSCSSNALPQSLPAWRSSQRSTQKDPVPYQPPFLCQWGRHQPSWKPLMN

Melanocortin receptor 4 = Melanocortin receptor 4 (Homo sapiens, UniProt P32245); type: functional, cell-based;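 note: Cell-based assay with luminescence read-out, confirmatory dose-response testing for agonist activity of biased ligands at MC4R; human U2OS cells with tagged receptor and beta-arrestin; potency of agonists that increase receptor coupling to beta-arrestin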
Insulin-degrading enzyme [4] = biological target: T1, Insulin-degrading enzyme; test: cellular IDE activation of Abeta substrate cleavage – fluorescence polarization, HEK cells, dose response (AID 588439); type: functional, cell-based
cells = type: functional
HEK293 [5] = test: membrane integrity loss in HEK cells – cell-based, fluorescence, cytotoxicity control for IDE activator project, dose response (AID 588440); type: functional; settings: Homo sapiens;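 note: cytotoxicity by LDH release measuring loss of membrane integrity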
[6] = Vero E6 cell cytotoxicity, dose response, cytotoxicity control for non-replicating M. tuberculosis project, secondary assay (AID 492998); type: functional, VeroE6; settings: Vero C1008
HEK293 [7] = test: optical interference in Abeta FP readout, dose response, artefact control for IDE activator project, biochemical, fluorescence polarization (AID 588442); type: functional, cell-based; settings: Homo sapiens
[8] = biological target: T3, Rac GTPase-activating protein 1 (Homo sapiens, UniProt Q9H0H5); test: blockers of MgcRacGAP-driven Rac1 GTP hydrolysis – biochemical, ADP Hunter fluorescence, primary and confirmatory, confirmation (AID 624330); type: functional
T3 sequence (Q9H0H5 whole entry): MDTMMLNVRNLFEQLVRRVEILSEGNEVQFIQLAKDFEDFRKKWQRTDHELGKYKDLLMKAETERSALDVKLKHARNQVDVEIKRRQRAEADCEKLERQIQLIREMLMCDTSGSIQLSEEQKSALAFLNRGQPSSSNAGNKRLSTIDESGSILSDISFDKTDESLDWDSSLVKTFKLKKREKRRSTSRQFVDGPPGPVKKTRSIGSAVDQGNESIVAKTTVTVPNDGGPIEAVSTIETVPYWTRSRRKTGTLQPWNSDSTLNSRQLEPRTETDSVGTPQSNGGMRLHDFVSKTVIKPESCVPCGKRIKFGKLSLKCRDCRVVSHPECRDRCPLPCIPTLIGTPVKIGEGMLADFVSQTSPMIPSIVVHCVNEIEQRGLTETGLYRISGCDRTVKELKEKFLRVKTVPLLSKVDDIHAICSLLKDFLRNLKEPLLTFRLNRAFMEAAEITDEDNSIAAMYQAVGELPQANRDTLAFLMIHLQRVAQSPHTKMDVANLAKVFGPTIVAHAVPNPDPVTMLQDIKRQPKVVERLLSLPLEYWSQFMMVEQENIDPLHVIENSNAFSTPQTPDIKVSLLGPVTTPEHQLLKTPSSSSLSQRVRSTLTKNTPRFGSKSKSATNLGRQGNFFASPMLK

[9] = biological target: DNA (cytosine-5)-methyltransferase 1 (Homo sapiens, UniProt P26358); test: inhibition of DNA methylation by DNMT1 – biochemical, fluorescent molecular beacon, confirmation (AID 602386); type: functional
[10] = biological target: T4, Carboxy-terminal domain RNA polymerase II polypeptide A small phosphatase 1 (Homo sapiens, UniProt Q9GZU7); test: CTDSP1 inhibitors, concentration-response, biochemical, absorbance readout, ultra-high-throughput screen actives (AID 540297); type: functional
T4 sequence (Q9GZU7 whole entry): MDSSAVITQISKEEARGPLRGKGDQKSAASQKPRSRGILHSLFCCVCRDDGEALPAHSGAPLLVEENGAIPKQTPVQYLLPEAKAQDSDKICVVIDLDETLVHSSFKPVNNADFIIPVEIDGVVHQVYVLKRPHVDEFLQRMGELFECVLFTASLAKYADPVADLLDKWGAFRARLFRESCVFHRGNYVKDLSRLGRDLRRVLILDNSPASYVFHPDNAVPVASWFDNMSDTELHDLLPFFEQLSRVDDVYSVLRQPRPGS

Protein Wnt-3a = Protein Wnt-3a (Mus musculus, UniProt P27467); test: antagonism of Wnt3a pathway luciferase reporter – Wnt-LIGHT cells, luminescence, selectivity assay for Gli-SUFU antagonist project, dose response (AID 651570); type: functional; settings: read-out: IC50_Mean;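 note: Wnt-LIGHT reporter cells stimulated with conditioned medium from Wnt3a-producing cells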
[11] = biological target: T5, Low molecular weight phosphotyrosine protein phosphatase (Homo sapiens, UniProt P24666); type: functional; settings: read-out: IC50_Mean
T5 sequence (P24666 whole entry): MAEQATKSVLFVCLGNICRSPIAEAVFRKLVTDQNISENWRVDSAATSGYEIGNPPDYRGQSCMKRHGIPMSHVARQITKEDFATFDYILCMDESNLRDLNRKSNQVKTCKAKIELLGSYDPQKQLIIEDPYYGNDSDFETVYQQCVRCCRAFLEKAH

[12] = biological target: T5, Low molecular weight phosphotyrosine protein phosphatase; type: functional; settings: read-out: IC50_Mean; remark: listed apart in the source
[13] = biological target: T6, Apoptotic protease-activating factor 1 (Homo sapiens, UniProt O14727); test: SAR analysis of small molecule Activators of Apaf-1 in a Fluorescent assay.; type: functional; settings: read-out: EC50_Mean;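 note: caspase-3 cleavage of fluorogenic Rh110 DEVD substrate downstream of apoptosome activation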
T6 sequence (O14727 whole entry): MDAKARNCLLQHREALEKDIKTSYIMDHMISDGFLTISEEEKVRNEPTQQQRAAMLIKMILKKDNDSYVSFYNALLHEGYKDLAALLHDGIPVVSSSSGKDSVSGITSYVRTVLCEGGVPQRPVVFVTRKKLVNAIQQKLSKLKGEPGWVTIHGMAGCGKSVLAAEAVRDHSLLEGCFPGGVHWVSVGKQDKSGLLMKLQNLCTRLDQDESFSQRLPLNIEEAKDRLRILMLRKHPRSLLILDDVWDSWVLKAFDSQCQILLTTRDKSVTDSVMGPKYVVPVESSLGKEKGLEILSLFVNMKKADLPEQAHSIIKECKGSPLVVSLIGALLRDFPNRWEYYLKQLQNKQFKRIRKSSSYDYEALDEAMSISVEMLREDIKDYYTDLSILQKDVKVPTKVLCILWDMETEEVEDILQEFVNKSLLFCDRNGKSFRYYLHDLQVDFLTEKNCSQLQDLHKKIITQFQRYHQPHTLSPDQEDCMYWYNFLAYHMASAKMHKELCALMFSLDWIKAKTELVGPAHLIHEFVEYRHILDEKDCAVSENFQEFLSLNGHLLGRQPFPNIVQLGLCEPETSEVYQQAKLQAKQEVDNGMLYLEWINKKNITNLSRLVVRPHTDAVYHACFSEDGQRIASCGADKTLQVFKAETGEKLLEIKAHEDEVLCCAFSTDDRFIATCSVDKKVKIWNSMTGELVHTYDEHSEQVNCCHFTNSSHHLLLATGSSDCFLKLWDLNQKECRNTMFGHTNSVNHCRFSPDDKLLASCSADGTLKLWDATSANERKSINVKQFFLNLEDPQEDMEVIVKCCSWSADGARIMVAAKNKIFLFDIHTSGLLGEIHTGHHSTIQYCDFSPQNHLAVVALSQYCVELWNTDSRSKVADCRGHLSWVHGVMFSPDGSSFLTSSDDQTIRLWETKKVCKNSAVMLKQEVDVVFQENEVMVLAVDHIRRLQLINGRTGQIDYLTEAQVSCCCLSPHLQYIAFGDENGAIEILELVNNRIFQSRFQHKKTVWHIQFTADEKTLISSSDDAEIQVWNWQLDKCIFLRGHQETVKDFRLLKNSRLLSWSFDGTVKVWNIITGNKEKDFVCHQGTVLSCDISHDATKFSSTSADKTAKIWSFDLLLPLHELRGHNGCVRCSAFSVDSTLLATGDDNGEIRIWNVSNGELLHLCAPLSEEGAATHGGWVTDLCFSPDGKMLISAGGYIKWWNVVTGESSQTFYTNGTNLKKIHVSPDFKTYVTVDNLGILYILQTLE

[14] = reduction of Shn3 3'UTR-driven luciferase in osteoblasts – cell-based, Clone20 osteoblasts, firefly luciferase, cherry-picked, dose response (AID 624132); type: functional;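 note: firefly luciferase luminescence from reporter carrying the Shn3 3'UTR in osteoblasts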
[15] = loss of viability in HepG2 cells – cell-based, CellTiter-Glo, cherry-picked, cytotoxicity control for Shn3 inhibitor project, dose response (AID 624134); type: functional
[16] = non-specific 3'UTR reporter inhibition in Clone20-Shn3RL – cell-based, Renilla luciferase, cherry-picked, counter-screen for Shn3 inhibitor project, dose response (AID 624133); type: functional

Melanocortin receptor 4, sequence (P32245 whole entry): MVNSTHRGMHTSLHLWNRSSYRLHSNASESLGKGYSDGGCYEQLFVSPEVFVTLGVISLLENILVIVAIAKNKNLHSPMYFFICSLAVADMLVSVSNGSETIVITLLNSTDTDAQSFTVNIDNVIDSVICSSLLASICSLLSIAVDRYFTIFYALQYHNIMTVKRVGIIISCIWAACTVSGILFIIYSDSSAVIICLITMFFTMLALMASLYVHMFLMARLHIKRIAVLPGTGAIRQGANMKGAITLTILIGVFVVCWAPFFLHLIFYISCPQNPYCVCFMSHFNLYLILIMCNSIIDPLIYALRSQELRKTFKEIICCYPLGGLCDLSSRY
Protein Wnt-3a, sequence (P27467 whole entry): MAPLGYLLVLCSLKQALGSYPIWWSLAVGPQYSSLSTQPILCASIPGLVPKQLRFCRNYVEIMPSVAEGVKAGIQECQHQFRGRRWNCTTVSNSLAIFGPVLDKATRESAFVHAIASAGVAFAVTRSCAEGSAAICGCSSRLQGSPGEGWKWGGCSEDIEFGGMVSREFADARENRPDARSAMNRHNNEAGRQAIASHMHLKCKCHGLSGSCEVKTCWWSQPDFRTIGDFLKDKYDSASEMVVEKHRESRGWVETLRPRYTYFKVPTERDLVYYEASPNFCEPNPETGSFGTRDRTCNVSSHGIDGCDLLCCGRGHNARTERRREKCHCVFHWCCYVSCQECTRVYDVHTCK
DNA (cytosine-5)-methyltransferase 1, sequence (P26358 whole entry, the tested form may be a part): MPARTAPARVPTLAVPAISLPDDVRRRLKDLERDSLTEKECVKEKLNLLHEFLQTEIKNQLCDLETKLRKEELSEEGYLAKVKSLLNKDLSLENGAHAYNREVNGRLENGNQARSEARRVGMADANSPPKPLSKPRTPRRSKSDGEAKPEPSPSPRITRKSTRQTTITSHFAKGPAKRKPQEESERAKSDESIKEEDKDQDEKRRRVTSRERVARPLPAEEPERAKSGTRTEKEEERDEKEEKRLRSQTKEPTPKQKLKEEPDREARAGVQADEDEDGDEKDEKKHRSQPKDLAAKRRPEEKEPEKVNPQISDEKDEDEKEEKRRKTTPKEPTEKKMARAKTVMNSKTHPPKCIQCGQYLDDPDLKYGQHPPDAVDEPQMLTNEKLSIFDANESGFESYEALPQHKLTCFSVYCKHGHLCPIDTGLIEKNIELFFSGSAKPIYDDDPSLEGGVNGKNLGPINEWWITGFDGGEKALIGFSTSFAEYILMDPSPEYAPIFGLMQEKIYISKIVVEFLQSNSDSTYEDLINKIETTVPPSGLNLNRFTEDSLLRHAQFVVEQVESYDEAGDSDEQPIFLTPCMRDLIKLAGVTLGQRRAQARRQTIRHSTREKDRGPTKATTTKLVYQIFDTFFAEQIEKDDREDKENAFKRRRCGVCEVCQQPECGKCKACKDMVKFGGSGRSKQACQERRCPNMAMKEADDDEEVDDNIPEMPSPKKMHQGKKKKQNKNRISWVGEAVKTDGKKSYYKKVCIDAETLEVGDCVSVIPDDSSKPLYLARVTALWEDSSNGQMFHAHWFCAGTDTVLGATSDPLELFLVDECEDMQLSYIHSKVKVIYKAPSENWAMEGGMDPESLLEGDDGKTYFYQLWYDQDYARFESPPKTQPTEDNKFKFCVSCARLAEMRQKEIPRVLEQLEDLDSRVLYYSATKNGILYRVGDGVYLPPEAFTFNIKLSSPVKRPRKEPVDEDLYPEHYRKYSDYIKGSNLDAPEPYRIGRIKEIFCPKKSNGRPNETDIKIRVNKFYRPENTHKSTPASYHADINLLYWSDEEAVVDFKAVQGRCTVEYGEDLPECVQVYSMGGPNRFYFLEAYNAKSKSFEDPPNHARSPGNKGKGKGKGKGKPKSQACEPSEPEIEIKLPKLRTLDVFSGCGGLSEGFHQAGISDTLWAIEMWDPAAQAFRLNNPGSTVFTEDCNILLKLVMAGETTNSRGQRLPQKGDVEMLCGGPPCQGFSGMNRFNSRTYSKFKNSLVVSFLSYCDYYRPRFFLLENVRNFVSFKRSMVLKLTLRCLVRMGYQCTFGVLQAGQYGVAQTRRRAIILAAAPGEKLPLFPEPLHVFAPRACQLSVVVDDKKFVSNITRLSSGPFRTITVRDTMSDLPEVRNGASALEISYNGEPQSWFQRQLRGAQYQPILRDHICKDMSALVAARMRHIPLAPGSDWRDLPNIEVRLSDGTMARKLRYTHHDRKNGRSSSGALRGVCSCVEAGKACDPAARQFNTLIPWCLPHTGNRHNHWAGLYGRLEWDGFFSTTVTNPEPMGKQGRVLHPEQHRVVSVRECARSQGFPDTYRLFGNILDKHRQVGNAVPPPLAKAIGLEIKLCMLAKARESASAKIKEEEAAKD

In the case of `Cc1c(CN2CCC(CO)(CCOc3ccccc3)CC2)[nH]c2c(Cl)cccc12`, the EC50 (Insulin-degrading enzyme [1]) is reported as > 54.7 µM (inactive), the CC50 [2] is reported as 14.5 µM (active) and the CC50 [3] is reported as 12.4 µM (active). For the same molecule, the “Absolute IC50 (XBP1)” value (X-box-binding protein 1) was 10 µM, the EC50 (Melanocortin receptor 4) was > 89.2 µM (inactive) and the EC50 (Insulin-degrading enzyme [4]) was 14.3 µM (inactive). For the same molecule, the IC50 (cells) was 6.5 µM (active), the IC50 (HEK293 [5]) was 22.8 µM (inactive) and the CC50 [6] was 16.3 µM (active). The EC50 (HEK293 [7]) was > 54.7 µM (inactive).

With `CCc1ccc(/C(C)=N/NC(=O)CNC(=O)/C=C/c2ccco2)cc1` the IC50 [8] was 106 µM (active), the IC50 [9] was 6.95 µM (active) and the IC50 [10] was 844 nM (active).

For `COc1ccc(CN(C)C(=O)c2cccc(NC(=O)CC3SC(N4CCCCC4)=NC3=O)c2)c(OC)c1` (stereo not given), the IC50 (Protein Wnt-3a) was 21.7 µM (inactive).

With `O=C1C(=Cc2cn(-c3ccccc3)nc2-c2ccc(OCc3ccccc3F)cc2)SC(=S)N1CCS(=O)(=O)O` the IC50 [11] was 4.12 µM (active) and the IC50 [12] was 12.2 µM (active).

In the case of `Cc1ccc(NC(=O)c2ccccc2OCC(=O)c2ccc(F)cc2)cc1`, the EC50 (Melanocortin receptor 4) is reported as > 89.2 µM (inactive).

With `COC(=O)[C@@H]1COC(c2ccccc2C(F)(F)F)=N1` the EC50 [13] was > 100 µM (inactive).

With `COc1ccc(OC)c(NC(=O)CC(C)S(=O)(=O)c2ccc3c(c2)CCN3C(C)=O)c1` (stereo not given) the EC50 [13] was > 100 µM (inactive).

In the case of `C=CCOC(=O)c1[nH]c2c(c1C)C(=O)CC(c1cc(OC)c(OC)c(OC)c1)C2` (stereo not given), the AC50 [14] is reported as 1.83 µM (active), the AC50 [15] is reported as 53.5 µM (active) and the IC50 (Protein Wnt-3a) is reported as 1.89 µM (active). The AC50 [16] was 1.28 µM (active).

With `COc1ccccc1CNc1nc(NCc2cnc(C)cn2)c2sccc2n1` the IC50 [11] was 4.31 µM (active) and the IC50 [12] was 5.74 µM (active).
